Measured values taken from the NIST ThermoML archive (doi:10.1016/j.tca.2016.05.007).

Test: molar heat capacity at constant pressure
Details: 101.33 kPa, Small (less than 1 g) adiabatic calorimetry

COc1ccc(C2(c3ccc(OC)c(C)c3)OC(=O)c3ccccc32)cc1C [3,3-bis(4-methoxy-3-methylphenyl)-1(3H)-isobenzofuranone]
Details	molar heat capacity at constant pressure [J/K/mol]
5.802 K, Glass	2.967
6.011 K, Crystal	1.658
6.232 K, Glass	3.526
6.486 K, Crystal	2.176
6.689 K, Glass	4.234
6.977 K, Crystal	2.797
7.179 K, Glass	5.003
7.498 K, Crystal	3.461
7.715 K, Glass	5.872
8.061 K, Crystal	4.249
8.282 K, Glass	6.885
8.65 K, Crystal	5.21
8.874 K, Glass	8.044
9.274 K, Crystal	6.207
9.483 K, Glass	9.187
9.939 K, Crystal	7.418
10.1 K, Glass	10.44
10.63 K, Crystal	8.764
10.73 K, Glass	11.74
11.34 K, Crystal	10.21
11.35 K, Glass	13.13
11.98 K, Glass	14.45
12.03 K, Crystal	11.58
12.62 K, Glass	15.86
12.71 K, Crystal	13.08
13.28 K, Glass	17.41
13.41 K, Crystal	14.58
13.96 K, Glass	18.93
14.13 K, Crystal	16.23
14.66 K, Glass	20.58
14.89 K, Crystal	18.08
15.39 K, Glass	22.28
15.68 K, Crystal	19.91
16.15 K, Glass	24.12
16.49 K, Crystal	21.8
16.94 K, Glass	25.94
17.04 K, Crystal	22.93
17.66 K, Glass	27.62
17.91 K, Crystal	25.25
18.49 K, Glass	29.63
18.78 K, Crystal	27.27
19.34 K, Glass	31.77
19.67 K, Crystal	29.41
20.21 K, Glass	33.84
20.58 K, Crystal	31.37
21.11 K, Glass	35.96
21.5 K, Crystal	33.68
22.03 K, Glass	38.09
22.45 K, Crystal	35.73
23 K, Glass	40.41
23.44 K, Crystal	38.11
24.02 K, Glass	42.79
24.48 K, Crystal	40.68
25.08 K, Glass	45.25
25.54 K, Crystal	43.24
26.16 K, Glass	47.65
26.63 K, Crystal	45.57
27.26 K, Glass	50.09
27.74 K, Crystal	48.13
28.38 K, Glass	52.99
28.86 K, Crystal	51.61
29.5 K, Glass	56.69
29.99 K, Crystal	54.09
30.63 K, Glass	57.45
31.12 K, Crystal	55.63
31.76 K, Glass	60.08
32.25 K, Crystal	58.38
32.9 K, Glass	63.09
33.39 K, Crystal	61.18
34.06 K, Glass	65.62
34.56 K, Crystal	63.78
35.25 K, Glass	68.43
35.74 K, Crystal	66.5
36.45 K, Glass	70.84
36.95 K, Crystal	69.15
37.67 K, Glass	73.54
38.17 K, Crystal	71.7
38.9 K, Glass	75.9
39.4 K, Crystal	74.01
40.15 K, Glass	78.39
40.66 K, Crystal	76.39
41.41 K, Glass	80.76
41.94 K, Crystal	79
42.68 K, Glass	83.53
43.23 K, Crystal	81.44
43.93 K, Glass	85.97
44.51 K, Crystal	83.92
45.19 K, Glass	88.07
45.78 K, Crystal	86.54
46.45 K, Glass	90.22
47.06 K, Crystal	89.06
47.71 K, Glass	93.04
48.33 K, Crystal	91.12
48.97 K, Glass	95.25
49.6 K, Crystal	94.6
50.23 K, Glass	98.01
50.87 K, Crystal	97.15
51.48 K, Glass	100.37
52.14 K, Crystal	99.73
52.74 K, Glass	103.27
53.41 K, Crystal	102.49
54 K, Glass	105.75
54.68 K, Crystal	105
55.27 K, Glass	108.28
55.95 K, Crystal	107.6
56.53 K, Glass	110.76
57.22 K, Crystal	109.68
57.79 K, Glass	113.22
58.5 K, Crystal	112.22
59.06 K, Glass	115.64
59.77 K, Crystal	114.59
60.33 K, Glass	117.82
61.05 K, Crystal	116.87
61.6 K, Glass	120.17
62.33 K, Crystal	119.39
62.87 K, Glass	122.44
63.61 K, Crystal	121.85
64.15 K, Glass	124.78
64.89 K, Crystal	123.86
65.43 K, Glass	126.76
66.18 K, Crystal	125.9
66.72 K, Glass	129.06
67.47 K, Crystal	128.08
68.01 K, Glass	131.4
68.77 K, Crystal	130.54
69.3 K, Glass	133.63
70.07 K, Crystal	132.99
70.6 K, Glass	136.05
71.38 K, Crystal	135.25
71.91 K, Glass	138.21
72.69 K, Crystal	137.49
73.22 K, Glass	140.28
74.01 K, Crystal	139.48
74.59 K, Glass	142.77
75.33 K, Crystal	141.75
76.03 K, Glass	145.08
76.66 K, Crystal	144.1
77.47 K, Glass	147.57
77.99 K, Crystal	146.27
78.91 K, Glass	149.7
79.33 K, Crystal	148.82
80.36 K, Glass	152.24
80.67 K, Crystal	150.88
81.81 K, Glass	154.61
82.09 K, Crystal	152.82
83.27 K, Glass	156.85
83.57 K, Crystal	155.34
84.73 K, Glass	159.35
85.06 K, Crystal	157.59
86.19 K, Glass	161.67
86.55 K, Crystal	160.21
87.66 K, Glass	164.03
88.04 K, Crystal	162.51
89.14 K, Glass	166.13
89.54 K, Crystal	164.72
90.62 K, Glass	168.74
91.05 K, Crystal	167.41
92.11 K, Glass	171.18
92.56 K, Crystal	169.71
93.61 K, Glass	173.56
94.08 K, Crystal	172.05
95.11 K, Glass	176.28
95.6 K, Crystal	174.26
96.62 K, Glass	178.27
97.14 K, Crystal	176.64
98.14 K, Glass	180.03
98.67 K, Crystal	178.97
99.67 K, Glass	182.72
100.22 K, Crystal	181.39
101.2 K, Glass	185
101.77 K, Crystal	183.97
102.74 K, Glass	186.83
103.33 K, Crystal	186.52
104.29 K, Glass	189.85
104.9 K, Crystal	188.69
105.85 K, Glass	192.15
106.48 K, Crystal	190.79
107.42 K, Glass	194.15
108.07 K, Crystal	193.1
109 K, Glass	196.63
109.72 K, Crystal	195.77
110.58 K, Glass	199.21
111.45 K, Crystal	198.35
112.18 K, Glass	201.62
113.19 K, Crystal	200.89
113.78 K, Glass	204.03
114.95 K, Crystal	203.39
115.4 K, Glass	206.27
116.73 K, Crystal	205.7
117.1 K, Glass	208.63
118.52 K, Crystal	209.32
118.89 K, Glass	211.16
120.34 K, Crystal	211.71
120.69 K, Glass	213.89
